In ChEMBL document CHEMBL2390917, “Synthesis and biological evaluation of 2-(5-methyl-4-phenyl-2-oxopyrrolidin-1-yl)-acetamide stereoisomers as novel positive allosteric modulators of sigma-1 receptor” (Bioorg Med Chem, 2013):
Active and inactive are the calls of the source. The calls are words filed in the database; no cut-off is given here.

What was measured:
[1] = biological target: Galanin receptor type 2 (Homo sapiens) (UniProt O43603); experiment: Binding affinity to human GAL2 receptor at 10 uM by radioligand displacement assay relative to control
[2] = biological target: D(2) dopamine receptor (Homo sapiens) (UniProt P14416); experiment: Binding affinity to human dopamine D2S receptor at 10 uM by radioligand displacement assay relative to control
[3] = biological target: Cannabinoid receptor 1 (Homo sapiens) (UniProt P21554); experiment: Binding affinity to human CB1 receptor at 10 uM by radioligand displacement assay relative to control
[4] = biological target: B2 bradykinin receptor (Homo sapiens) (UniProt P30411); experiment: Binding affinity to human bradykinin B2 receptor at 10 uM by radioligand displacement assay relative to control
[5] = biological target: T1, Sigma non-opioid intracellular receptor 1 (Homo sapiens, UniProt Q99720); experiment: Displacement of [3H]1,3-di(2-tolyl)guanidine from sigma 1 receptor in human Jurkat cells; assay type: cell-based
Mus musculus [6] = experiment: Toxicity in ICR mouse assessed as effect on locomotor activity measured moved distance per 4 mins at 10 mg/kg, ip after 240 mins by open field test (reference value: 398 70 cm); assay type: organism-based; parameters: dose 10 mg/kg, route intraperitoneal; settings: in vivo
Mus musculus [7] = experiment: Toxicity in ICR mouse assessed as effect on locomotor activity measured moved distance per 4 mins at 1 mg/kg, ip after 180 mins by open field test (reference value: 436 125 cm); assay type: organism-based; parameters: dose 1 mg/kg, route intraperitoneal; settings: in vivo
Mus musculus [8] = experiment: Toxicity in ICR mouse assessed as effect on locomotor activity measured moved distance per 4 mins at 10 mg/kg, ip after 180 mins by open field test (reference value: 436 125 cm); assay type: organism-based; parameters: dose 10 mg/kg, route intraperitoneal; settings: in vivo
Mus musculus [9] = experiment: Toxicity in ICR mouse assessed as effect on locomotor activity measured moved distance per 4 mins at 1 mg/kg, ip after 120 mins by open field test (reference value: 578 126 cm); assay type: organism-based; parameters: dose 1 mg/kg, route intraperitoneal; settings: in vivo
Mus musculus [10] = experiment: Toxicity in ICR mouse assessed as effect on locomotor activity measured moved distance per 4 mins at 10 mg/kg, ip after 120 mins by open field test (reference value: 578 126 cm); assay type: organism-based; parameters: dose 10 mg/kg, route intraperitoneal; settings: in vivo
Mus musculus [11] = experiment: Toxicity in ICR mouse assessed as effect on locomotor activity measured moved distance per 4 mins at 100 mg/kg, ip after 60 mins by open field test (reference value: 623 136 cm); assay type: organism-based; parameters: dose 100 mg/kg, route intraperitoneal; settings: in vivo
Mus musculus [12] = experiment: Toxicity in ICR mouse assessed as effect on locomotor activity measured moved distance per 4 mins at 1 mg/kg, ip after 60 mins by open field test (reference value: 623 136 cm); assay type: organism-based; parameters: dose 1 mg/kg, route intraperitoneal; settings: in vivo
Mus musculus [13] = experiment: Toxicity in ICR mouse assessed as effect on locomotor activity measured moved distance per 4 mins at 10 mg/kg, ip after 60 mins by open field test (reference value: 623 136 cm); assay type: organism-based; parameters: dose 10 mg/kg, route intraperitoneal; settings: in vivo
Mus musculus [14] = experiment: Toxicity in ICR mouse assessed as effect on locomotor activity measured moved distance per 4 mins at 1 mg/kg, ip after 30 mins by open field test (reference value: 1124 121 cm); assay type: organism-based; parameters: dose 1 mg/kg, route intraperitoneal; settings: in vivo
Mus musculus [15] = experiment: Antiamnesic activity in ICR mouse scopolamine-induced memory impairment model assessed as increase in retention latency at 5 mg/kg, ip administered 60 mins prior to scopolamine challenge measured after 40 mins by passive avoidance test in presence of sigma-1 receptor anatagonist NE-100; assay type: functional, organism-based; parameters: dose 5 mg/kg
Mus musculus [16] = experiment: Antiamnesic activity in ICR mouse scopolamine-induced memory impairment model assessed as increase in retention latency at 10 mg/kg, ip administered 60 mins prior to scopolamine challenge measured after 40 mins by passive avoidance test relative to scopolamine-treated control; assay type: functional; settings: route intraperitoneal
Mus musculus [17] = experiment: Antiamnesic activity in ICR mouse scopolamine-induced memory impairment model assessed as increase in retention latency at 5 mg/kg, ip administered 60 mins prior to scopolamine challenge measured after 40 mins by passive avoidance test relative to scopolamine-treated control; assay type: functional; settings: route intraperitoneal
[18] = biological target: T1, Sigma non-opioid intracellular receptor 1; experiment: Modulation of sigma 1 receptor (unknown origin) by radioligand displacement assay relative to control
[19] = biological target: Sodium-dependent dopamine transporter (Homo sapiens) (UniProt Q01959); experiment: Binding affinity to human dopamine transporter at 10 uM by radioligand displacement assay relative to control
[20] = biological target: voltage-gated potassium channel (Homo sapiens, UniProt O43525+O43526+O95259+P16389+P17658+P22001+P22459+P22460+P48547+P51787+P56696+Q03721+Q09470+Q12809+Q14003+Q14721+Q16322+Q6PIU1+Q8NCM2+Q8TAE7+Q8TDN1+Q8TDN2+Q92953+Q96KK3+Q96L42+Q96PR1+Q96RP8+Q9BQ31+Q9H252+Q9H3M0+Q9NR82+Q9NS40+Q9NSA2+Q9NZV8+Q9UIX4+Q9UJ96+Q9UK17+Q9ULD8+Q9ULS6+Q9UQ05); experiment: Binding affinity to voltage-gated potassium channel (unknown origin) at 10 uM by radioligand displacement assay relative to control; assay type: protein assay
Homo sapiens [21] = species on record: Homo sapiens; experiment: Binding affinity to L-type calcium channel verapamil binding site (unknown origin) at 10 uM by radioligand displacement assay relative to control
[22] = biological target: Vasopressin V1a receptor (Homo sapiens) (UniProt P37288); experiment: Binding affinity to human vasopressin V1a receptor at 10 uM by radioligand displacement assay relative to control
[23] = biological target: Somatostatin receptor type 1 (Homo sapiens) (UniProt P30872); experiment: Binding affinity to Somatostatin receptor type 1 (unknown origin) at 10 uM by radioligand displacement assay relative to control
[24] = biological target: 5-hydroxytryptamine receptor 7 (Homo sapiens) (UniProt P34969); experiment: Binding affinity to human 5-HT7 receptor at 10 uM by radioligand displacement assay relative to control
[25] = biological target: 5-hydroxytryptamine receptor 3A (Homo sapiens) (UniProt P46098); experiment: Binding affinity to human 5-HT3 receptor at 10 uM by radioligand displacement assay relative to control
[26] = biological target: 5-hydroxytryptamine receptor 1A (Homo sapiens) (UniProt P08908); experiment: Binding affinity to human 5-HT1A receptor at 10 uM by radioligand displacement assay relative to control
Homo sapiens [27] = species on record: Homo sapiens; experiment: Binding affinity to P2X receptor (unknown origin) at 10 uM by radioligand displacement assay relative to control
[28] = biological target: Peroxisome proliferator-activated receptor gamma (Homo sapiens) (UniProt P37231); experiment: Binding affinity to human PPARgamma receptor at 10 uM by radioligand displacement assay relative to control
[29] = biological target: Vasoactive intestinal polypeptide receptor 1 (Homo sapiens) (UniProt P32241); experiment: Binding affinity to human VPAC1 receptor at 10 uM by radioligand displacement assay relative to control
[30] = biological target: Kappa-type opioid receptor (Homo sapiens) (UniProt P41145); experiment: Binding affinity to kappa opioid receptor (unknown origin) at 10 uM by radioligand displacement assay relative to control
[31] = biological target: Substance-K receptor (Homo sapiens) (UniProt P21452); experiment: Binding affinity to human NK2 receptor at 10 uM by radioligand displacement assay relative to control
[32] = biological target: Muscarinic acetylcholine receptor M4 (Homo sapiens) (UniProt P08173); experiment: Binding affinity to human muscarinic M4 receptor at 10 uM by radioligand displacement assay relative to control
Sequence of Muscarinic acetylcholine receptor M4 (Homo sapiens) (P08173 whole entry): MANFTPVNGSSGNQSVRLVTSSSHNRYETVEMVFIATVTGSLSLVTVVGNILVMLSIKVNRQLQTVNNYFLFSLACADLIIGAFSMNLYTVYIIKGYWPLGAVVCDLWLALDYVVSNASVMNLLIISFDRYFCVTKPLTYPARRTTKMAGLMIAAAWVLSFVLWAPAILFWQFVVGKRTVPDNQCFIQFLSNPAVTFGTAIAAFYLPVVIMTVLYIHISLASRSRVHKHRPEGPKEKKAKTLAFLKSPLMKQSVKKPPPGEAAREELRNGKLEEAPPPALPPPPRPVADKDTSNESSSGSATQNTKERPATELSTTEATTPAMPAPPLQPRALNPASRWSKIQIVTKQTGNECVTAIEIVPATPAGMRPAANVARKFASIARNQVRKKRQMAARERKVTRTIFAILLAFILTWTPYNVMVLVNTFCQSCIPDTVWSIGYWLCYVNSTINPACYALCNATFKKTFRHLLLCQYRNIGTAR

T1 sequence (Q99720 whole entry): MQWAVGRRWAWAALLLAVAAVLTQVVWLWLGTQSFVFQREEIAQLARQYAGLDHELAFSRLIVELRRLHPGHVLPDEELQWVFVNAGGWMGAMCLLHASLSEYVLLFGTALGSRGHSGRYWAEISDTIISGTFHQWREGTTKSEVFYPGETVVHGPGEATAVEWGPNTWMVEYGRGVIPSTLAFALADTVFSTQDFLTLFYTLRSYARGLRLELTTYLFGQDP
Sequence of 5-hydroxytryptamine receptor 3A (Homo sapiens) (P46098 whole entry): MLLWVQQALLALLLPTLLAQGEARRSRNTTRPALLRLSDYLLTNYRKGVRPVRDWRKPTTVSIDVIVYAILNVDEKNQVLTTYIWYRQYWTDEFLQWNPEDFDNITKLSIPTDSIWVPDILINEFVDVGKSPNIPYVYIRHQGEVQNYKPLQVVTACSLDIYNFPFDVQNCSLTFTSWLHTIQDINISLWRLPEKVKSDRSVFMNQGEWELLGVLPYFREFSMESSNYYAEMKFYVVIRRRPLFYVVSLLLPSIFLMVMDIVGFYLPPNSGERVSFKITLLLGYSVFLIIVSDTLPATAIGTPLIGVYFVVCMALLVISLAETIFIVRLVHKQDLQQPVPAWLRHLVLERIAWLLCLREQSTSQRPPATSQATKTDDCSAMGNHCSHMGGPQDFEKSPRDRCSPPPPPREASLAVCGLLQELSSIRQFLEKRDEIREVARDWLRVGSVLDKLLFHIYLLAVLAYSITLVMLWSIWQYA
Sequence of 5-hydroxytryptamine receptor 1A (Homo sapiens) (P08908 whole entry): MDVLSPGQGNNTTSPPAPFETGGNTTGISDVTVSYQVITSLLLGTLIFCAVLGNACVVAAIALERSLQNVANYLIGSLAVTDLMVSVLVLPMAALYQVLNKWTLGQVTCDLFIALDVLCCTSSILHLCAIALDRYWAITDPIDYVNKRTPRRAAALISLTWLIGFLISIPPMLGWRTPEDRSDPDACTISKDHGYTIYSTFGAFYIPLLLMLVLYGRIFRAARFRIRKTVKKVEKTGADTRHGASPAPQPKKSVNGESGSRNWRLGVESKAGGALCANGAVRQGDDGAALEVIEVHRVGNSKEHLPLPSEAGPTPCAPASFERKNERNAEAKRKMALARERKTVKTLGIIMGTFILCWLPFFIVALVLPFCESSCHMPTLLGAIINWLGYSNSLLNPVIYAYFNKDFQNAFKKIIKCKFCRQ
Sequence of Cannabinoid receptor 1 (Homo sapiens) (P21554 whole entry): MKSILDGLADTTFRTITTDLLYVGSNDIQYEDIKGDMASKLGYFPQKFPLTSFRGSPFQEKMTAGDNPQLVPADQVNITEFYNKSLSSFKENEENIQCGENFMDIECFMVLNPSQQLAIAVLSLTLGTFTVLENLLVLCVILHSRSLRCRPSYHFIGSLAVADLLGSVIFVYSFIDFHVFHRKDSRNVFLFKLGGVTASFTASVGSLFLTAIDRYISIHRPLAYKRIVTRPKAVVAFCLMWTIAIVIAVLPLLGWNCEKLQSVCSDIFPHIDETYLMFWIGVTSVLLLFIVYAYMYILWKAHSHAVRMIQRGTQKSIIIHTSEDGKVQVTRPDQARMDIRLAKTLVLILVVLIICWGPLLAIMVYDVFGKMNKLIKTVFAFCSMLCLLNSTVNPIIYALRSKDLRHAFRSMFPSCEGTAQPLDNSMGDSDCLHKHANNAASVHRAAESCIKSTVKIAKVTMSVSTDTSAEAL
Sequence of Substance-K receptor (Homo sapiens) (P21452 whole entry): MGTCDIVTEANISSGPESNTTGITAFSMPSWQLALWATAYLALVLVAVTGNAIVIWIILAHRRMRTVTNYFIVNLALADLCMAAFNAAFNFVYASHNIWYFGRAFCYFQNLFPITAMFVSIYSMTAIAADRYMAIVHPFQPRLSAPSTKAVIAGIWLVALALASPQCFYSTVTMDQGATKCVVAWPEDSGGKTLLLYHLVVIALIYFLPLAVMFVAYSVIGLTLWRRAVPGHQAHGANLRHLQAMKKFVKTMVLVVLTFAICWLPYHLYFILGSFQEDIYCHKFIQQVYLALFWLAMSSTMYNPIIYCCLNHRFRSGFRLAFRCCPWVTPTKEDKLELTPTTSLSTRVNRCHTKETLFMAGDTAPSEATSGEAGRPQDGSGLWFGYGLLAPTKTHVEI
Sequence of Peroxisome proliferator-activated receptor gamma (Homo sapiens) (P37231 whole entry): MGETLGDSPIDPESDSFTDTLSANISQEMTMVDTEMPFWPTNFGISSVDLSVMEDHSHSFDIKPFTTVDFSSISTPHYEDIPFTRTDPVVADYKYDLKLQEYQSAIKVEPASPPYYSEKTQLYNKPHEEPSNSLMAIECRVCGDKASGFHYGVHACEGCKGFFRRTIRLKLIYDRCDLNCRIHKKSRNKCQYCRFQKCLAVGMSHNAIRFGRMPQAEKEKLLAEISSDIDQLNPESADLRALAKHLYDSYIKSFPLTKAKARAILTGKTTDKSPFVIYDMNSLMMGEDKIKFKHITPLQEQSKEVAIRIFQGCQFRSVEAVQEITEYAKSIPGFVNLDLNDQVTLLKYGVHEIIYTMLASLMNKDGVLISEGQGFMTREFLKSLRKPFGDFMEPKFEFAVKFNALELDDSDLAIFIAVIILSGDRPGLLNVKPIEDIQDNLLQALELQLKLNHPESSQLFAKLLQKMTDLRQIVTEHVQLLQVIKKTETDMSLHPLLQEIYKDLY
Sequence of D(2) dopamine receptor (Homo sapiens) (P14416 whole entry): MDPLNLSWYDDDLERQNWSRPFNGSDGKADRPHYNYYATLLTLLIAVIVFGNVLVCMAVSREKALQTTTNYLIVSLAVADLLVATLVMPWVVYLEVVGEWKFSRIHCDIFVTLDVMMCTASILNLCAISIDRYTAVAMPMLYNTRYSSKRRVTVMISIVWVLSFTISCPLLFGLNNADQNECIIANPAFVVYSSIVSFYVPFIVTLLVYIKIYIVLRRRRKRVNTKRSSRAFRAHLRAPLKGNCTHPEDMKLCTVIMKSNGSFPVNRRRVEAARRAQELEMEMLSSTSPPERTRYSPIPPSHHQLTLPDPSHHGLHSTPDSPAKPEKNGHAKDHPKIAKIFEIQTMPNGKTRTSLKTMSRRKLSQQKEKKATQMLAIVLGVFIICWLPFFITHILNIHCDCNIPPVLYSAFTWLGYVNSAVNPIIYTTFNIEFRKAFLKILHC
Sequence of Sodium-dependent dopamine transporter (Homo sapiens) (Q01959 whole entry): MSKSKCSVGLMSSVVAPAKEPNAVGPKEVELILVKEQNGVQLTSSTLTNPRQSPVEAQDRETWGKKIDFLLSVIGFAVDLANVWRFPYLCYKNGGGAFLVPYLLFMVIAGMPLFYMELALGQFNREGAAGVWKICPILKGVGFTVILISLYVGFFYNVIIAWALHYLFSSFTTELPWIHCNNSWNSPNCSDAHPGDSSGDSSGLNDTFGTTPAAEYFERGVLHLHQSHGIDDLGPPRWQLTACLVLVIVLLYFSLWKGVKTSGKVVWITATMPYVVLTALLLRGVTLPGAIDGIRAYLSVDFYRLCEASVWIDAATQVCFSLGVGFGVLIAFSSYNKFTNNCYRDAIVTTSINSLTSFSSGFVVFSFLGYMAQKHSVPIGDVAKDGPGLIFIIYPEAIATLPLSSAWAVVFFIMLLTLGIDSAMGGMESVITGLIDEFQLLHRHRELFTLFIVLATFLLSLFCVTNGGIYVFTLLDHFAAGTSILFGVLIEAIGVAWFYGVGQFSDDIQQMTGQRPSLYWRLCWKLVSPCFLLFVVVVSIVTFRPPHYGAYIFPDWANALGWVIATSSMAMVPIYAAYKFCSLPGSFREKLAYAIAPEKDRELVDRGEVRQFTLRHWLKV
Sequence of Vasoactive intestinal polypeptide receptor 1 (Homo sapiens) (P32241 whole entry): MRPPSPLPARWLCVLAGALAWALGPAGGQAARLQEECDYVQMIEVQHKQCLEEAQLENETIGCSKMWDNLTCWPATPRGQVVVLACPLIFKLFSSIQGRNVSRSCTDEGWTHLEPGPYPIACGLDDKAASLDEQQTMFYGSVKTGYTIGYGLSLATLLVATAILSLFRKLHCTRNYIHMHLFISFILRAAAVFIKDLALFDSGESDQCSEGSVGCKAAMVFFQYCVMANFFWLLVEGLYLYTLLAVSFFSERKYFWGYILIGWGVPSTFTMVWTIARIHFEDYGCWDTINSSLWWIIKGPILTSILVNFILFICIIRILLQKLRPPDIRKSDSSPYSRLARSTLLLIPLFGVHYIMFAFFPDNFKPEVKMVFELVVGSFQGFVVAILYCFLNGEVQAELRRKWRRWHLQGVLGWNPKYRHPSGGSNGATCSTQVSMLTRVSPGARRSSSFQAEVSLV
Sequence of Kappa-type opioid receptor (Homo sapiens) (P41145 whole entry): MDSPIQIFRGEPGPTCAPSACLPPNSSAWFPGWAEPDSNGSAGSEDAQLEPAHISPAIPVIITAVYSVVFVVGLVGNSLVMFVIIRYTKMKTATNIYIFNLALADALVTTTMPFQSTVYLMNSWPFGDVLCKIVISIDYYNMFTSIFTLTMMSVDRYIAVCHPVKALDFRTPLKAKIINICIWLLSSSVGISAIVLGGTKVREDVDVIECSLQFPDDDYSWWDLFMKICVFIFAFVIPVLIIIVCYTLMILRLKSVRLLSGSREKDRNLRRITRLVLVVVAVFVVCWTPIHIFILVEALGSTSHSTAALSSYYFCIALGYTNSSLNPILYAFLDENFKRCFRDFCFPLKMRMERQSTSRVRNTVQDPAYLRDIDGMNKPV

For `C[C@H]1[C@@H](c2ccccc2)CC(=O)N1CC(N)=O`, the inhibition [1] was -4%, the inhibition [2] was 5% and the inhibition [3] was -3%. It also gave an inhibition [4] of 3%, an IC50 [5] of 43 nM and an Activity (Mus musculus [6]) of 359 cm. The Activity (Mus musculus [7]) was 559 cm, the Activity (Mus musculus [8]) was 406 cm and the Activity (Mus musculus [9]) was 688 cm. For the same compound, the Activity (Mus musculus [10]) was 472 cm, the Activity (Mus musculus [11]) was 648 cm and the Activity (Mus musculus [12]) was 871 cm. The Activity (Mus musculus [13]) was 640 cm, the Activity (Mus musculus [14]) was 1402 cm and the Activity (Mus musculus [15]) was “inactive”. The Activity (Mus musculus [16]) was 209%, the Activity (Mus musculus [17]) was 237% and the Activity [18] was > 20%. For the same compound, the inhibition [19] was 4%, the inhibition at 10 µM [20] was -2% and the inhibition (Homo sapiens [21]) was -1%. For the same compound, the inhibition [22] was 2%, the inhibition [23] was -5% and the inhibition [24] was -4%. The inhibition [25] was -1%, the inhibition [26] was -4% and the inhibition (Homo sapiens [27]) was 6%. It also gave an inhibition [28] of -9%, an inhibition [29] of -2% and an inhibition [30] of -5%. The inhibition [31] was -3% and the inhibition [32] was -3%.
